Reference: patent US6846824B2, “Bicyclic compounds and their use in medicine; process for their preparation and pharmaceutical compositions containing them” (Dr. Reddy's Laboratories Ltd., priority 1997, dated 2005)

Columns and labels:
Format in all cases: in vivo
[1] = tested on: Swiss albino mice and Guinea pigs; assay: Plasma triglyceride and total cholesterol lowering activity in Swiss albino mice and Guinea pigs; conditions: species (Swiss albino mice or Guinea pigs) not given
Experimental: Male Swiss albino mice (SAM) and male Guinea pigs were obtained from NIN and housed in DRF animal house. All these animals were maintained under 12 hour light and dark cycle at 25±1° C. Animals were given standard laboratory chow (NIN, Hyderabad, India) and water, ad libitum. SAM of 20-25 g body weight range and Guinea pigs of 500-700 g body weight range were used (Oliver, P., Plancke, M. O., Marzin, D., Clavey, V., Sauzieres, J and Fruchart, J. C. Effects of fenofibrate, gemfibrozil and nicotinic acid on plasma lipoprotein levels in normal and hyperlipidemic mice. Atherosclerosis. 1988. 70: 107-114).
The test compounds were administered orally to Swiss albino mice at 0.3 to 30 mg/kg/day dose for 6 days. Control mice were treated with vehicle (0.25% Carboxymethylcellulose; dose 10 ml/kg). The test compounds were administered orally to Guinea pigs at 0.3 to 30 mg/kg/day dose for 6 days. Control animals were treated with vehicle (0.25% Carboxymethylcellulose; dose 5 ml/kg).
The blood samples were collected in fed state 1 hour after drug administration on 0 and 6 day of treatment. The blood was collected from the retro-orbital sinus through heparinised capillary in EDTA containing tubes. After centrifugation, plasma sample was separated for triglyceride and total cholesterol (Wieland, 0. Methods of Enzymatic analysis. Bergermeyer, H. O., Ed., 1963. 211-214; Trinder, P. Ann. Clin. Biochem. 1969. 6: 24-27). Measurement of plasma triglyceride, total cholesterol and HDL were done using commercial kits (Dr. Reddy's Diagnostic Division, Hyderabad, India).
(§1) Formulae for Calculation: • 1. Percent reduction in Blood sugar/triglycerides/total cholesterol/body weight were calculated according to the formula: • Percent reduction [formula] OC=Zero day control group value OT=Zero day treated group value TC=Test day control group value TT=Test day treated group value

C57BL/KsJ-db/db mice = assay: Blood sugar and triglycerides lowering activity in db/db mice (genetic model)
Excerpt: Mutation in colonies of laboratory animals and different sensitivities to dietary regimens have made the development of animal models with non-insulin dependent diabetes and hyperlipidemia associated with obesity and insulin resistance possible. Genetic models such as db/db and ob/ob (Diabetes, (1982) 31(1): 1-6) mice and zucker fa/fa rats have been developed by the various laboratories for understanding the pathophysiology of disease and testing the efficacy of new antidiabetic compounds (Diabetes, (1983) 32: 830-838; Annu. Rep. Sankyo Res. Lab. (1994). 46 : 1-57). The homozygous animals, C57 BL/KsJ-db/db mice developed by Jackson Laboratory, US, are obese, hyperglycemic, hyperinsulinemic and insulin resistant (J. Clin. Invest., (1990) 85: 962-967), whereas heterozygous are lean and normoglycemic. In db/db model, mouse progressively develops insulinopenia with age, a feature commonly observed in late stages of human type II diabetes when blood sugar levels are insufficiently controlled. The state of pancreas and its course vary according to the models. Since this model resembles that of type II diabetes mellitus, the compounds of the present invention were tested for blood sugar and triglycerides lowering activities.
Male C57BL/KsJ-db/db mice of 8 to 14 weeks age, having body weight range of 35 to 60 grams, bred at Dr. Reddy's Research Foundation (DRF)animal house, were used in the experiment. The mice were provided with standard feed (National Institute of Nutrition (NIN), Hyderabad, India) and acidified water, ad libitum. The animals having more than 350 mg/dl blood sugar were used for testing. The number of animals in each group was 4.
Test compounds were suspended on 0.25% carboxymethyl cellulose and administered to test group at a dose of 0.1 mg to 30 mg/kg through oral gavage daily for 6 days. The control group received vehicle (dose 10 ml/kg). On 6th day the blood samples were collected one hour after administration of test compounds/vehicle for assessing the biological activity.
The random blood sugar and triglyceride levels were measured by collecting blood (100 μl) through orbital sinus, using heparinised capillary in tubes containing EDTA which was centrifuged to obtain plasma. The plasma glucose and triglyceride levels were measured spectrometrically, by glucose oxidase and glycerol-3-PO4 oxidase/peroxidase enzyme (Dr. Reddy's Lab. Diagnostic Division Kits, Hyderabad, India) methods respectively.
The blood sugar and triglycerides lowering activities of the test compound was calculated according to the formula.
as §1

[2] = tested on: cholesterol fed Syrian Hamsters; assay: Body weight reducing effect in cholesterol fed hamsters; conditions: 10 mg/kg/day orally for 15 days
Experimental: Male Syrian Hamsters were procured from NIN, Hyderabad, India. Animals were housed at DRF animal house under 12 hour light and dark cycle at 25±1° C. with free access to food and water. Animals were maintained with 1% cholesterol containing standard laboratory chow (NIN) from the day of treatment.
The test compounds were administered orally at 1 to 30 mg/kg/day dose for 15 days. Control group animals were treated with vehicle (Mill Q water, dose 10 ml/kg/day). Body weights were measured on every 3rd day.
as §1

[3] = tested on: hypercholesterolemic Sprague Dawley rats; assay: Plasma triglyceride and cholesterol lowering activity in hypercholesterolemic rat models; conditions: 1 mg/kg orally for 3 days; for HDL (%) ↑: increase; for Total Cholesterol (%) ↓ / Triglyceride (%) ↓ / LDL (%) ↓ / VLDL (%) ↓: reduction; for LDL (%) ↓: LDL calculated from total cholesterol; for LDL (%) ↓ / VLDL (%) ↓: HDL and triglyceride; for VLDL (%) ↓: VLDL calculated from total cholesterol
Experimental: Male Sprague Dawley rats (NIN stock) were bred in DRF animal house. Animals were maintained under 12 hour light and dark cycle at 25±1° C. Rats of 180 -200 gram body weight range were used for the experiment. Animals were made hypercholesterolemic by feeding 2% cholesterol and 1% sodium cholate mixed with standard laboratory chow [National Institute of Nutrition (NIN), Hyderabad, India] for 6 days. Throughout the experimental period the animals were maintained on the same diet (Petit, D., Bonnefis, M. T., Rey, C and Infante, R. Effects of ciprofibrate on liver lipids and lipoprotein synthesis in normo- and hyperlipidemic rats. Atherosclerosis. 1988. 74:215-225).
The test compounds were administered orally at a dose 0.1 to 30 mg/kg/day for 3 days. Control group was treated with vehicle alone (0.25% Carboxymethylcellulose; dose 10 ml/kg).
The blood samples were collected in fed state 1 hour after drug administration on 0 and 3 day of compound treatment. The blood was collected from the retro-orbital sinus through heparinised capillary in EDTA containing tubes. After centrifugation, plasma sample was separated for total cholesterol, HDL and triglyceride estimations. Measurement of plasma triglyceride, total cholesterol and HDL were done using commercial kits (Dr. Reddy's Laboratory, Diagnostic Division, India). LDL and VLDL cholesterol were calculated from the data obtained for total cholesterol, HDL and triglyceride. The reduction of various parameters examined are calculated according to the formula.
as §1
2. LDL and VLDL cholesterol levels were calculated according to the formula: [formula] [formula]

[4] = 3 mg/kg oral gavage daily for 6 days
[5] = 10 mg/kg oral gavage daily for 6 days

CCOC(Cc1ccc(OCCN2CCOc3ccccc32)cc1)C(N)=O (racemic) [Example 33, 3-[4-[2-(2,3-Dihydro-1,4-benzoxazin-4-yl)ethoxy]phenyl]-2-ethoxypropanamide]
Triglyceride Lowering (%) ([1]; 3 mg/kg orally for 6 days): 55%

CCOC(Cc1ccc(OCCN2C(=O)COc3ccccc32)cc1)C(=O)O (racemic) [Example 41, 3-[4-[2-(3-Oxo-2H-1,4-benzoxazin-4-yl)ethoxy]phenyl]-2-ethoxypropanoic acid]
Reduction in Blood Glucose Level (%) (C57BL/KsJ-db/db mice; [4]): 53% | Triglyceride Lowering (%) (C57BL/KsJ-db/db mice; [4]): 27% | Triglyceride Lowering (%) ([1]; 10 mg/kg orally for 6 days): 54%

CCOC(Cc1ccc2cc(OCCN3CCSc4ccccc43)ccc2c1)C(=O)O (racemic) [Example 43, 3-[6-[2-(2,3-Dihydro-1,4-benzothiazin-4-yl)ethoxy]naphthyl]-2-ethoxypropanoic acid]
Triglyceride Lowering (%) ([1]; 3 mg/kg orally for 6 days): 49%

CCOC(Cc1ccc(OCCN2CCOc3ccccc32)cc1)C(=O)[O-].[Na+] (stereo not shown) [Example 27, 3-[4-[2-(2,3-Dihydro-1,4-benzoxazin-4-yl)ethoxy]phenyl]-2-ethoxypropanoic acid, sodium salt]
Body weight Reduction (%) [2]: 12% | HDL (%) ↑ [3]: 37% | Total Cholesterol (%) ↓ [3]: 57% | Triglyceride (%) ↓ [3]: 43% | LDL (%) ↓ [3]: 58% | VLDL (%) ↓ [3]: 79%

CCOC(Cc1ccc(OCCN2CCSc3ccccc32)cc1)C(=O)[O-].[Na+] (stereo not shown) [Example 30, 3-[4-[2-(2,3-Dihydro-1,4-benzothiazin-4-yl)ethoxy]phenyl]-2-ethoxypropanoic acid, sodium salt]
Body weight Reduction (%) [2]: 18%

CCOC(Cc1ccc2cc(OCCN3CCSc4ccccc43)ccc2c1)C(=O)[O-].[Na+] (stereo not shown) [Example 44]
Reduction in Blood Glucose Level (%) (C57BL/KsJ-db/db mice; [5]): 47% | Triglyceride Lowering (%) (C57BL/KsJ-db/db mice; [5]): 74% | HDL (%) ↑ [3]: 46% | Total Cholesterol (%) ↓ [3]: 42% | Triglyceride (%) ↓ [3]: 50% | LDL (%) ↓ [3]: 44% | VLDL (%) ↓ [3]: 53%

CCCCOC(Cc1ccc(OCCN2CCOc3ccccc32)cc1)C(=O)[O-].[Na+] (stereo not shown) [Example 50, 3-[4-[2-(2,3-Dihydro-1,4-benzoxazin-4-yl)ethoxy]phenyl]-2-butoxypropanoic acid, sodium salt]
Reduction in Blood Glucose Level (%) (C57BL/KsJ-db/db mice; [4]): 45% | Triglyceride Lowering (%) (C57BL/KsJ-db/db mice; [4]): 23%

CCOC(Cc1ccc(OCC2CN(Cc3ccccc3)c3ccccc3O2)cc1)C(=O)[O-].[Na+] (stereo not shown) [Example 63, 3-[4-(4-Benzyl-3,4-dihydro-2H-1,4-benzoxazin-2-yl)methoxyphenyl]-2-ethoxypropanoic acid, sodium salt]
Triglyceride Lowering (%) ([1]; 3 mg/kg orally for 6 days): 57%
